Patent US11697852B2, “Systems and methods for determining a treatment course of action” (The Regents of the University of Michigan, priority 2013, dated 2023)
“Also recorded” adds a separate entry of the source.

Legend:
[1] = test system: ESR1 mutations p.Leu536Gln, p.Tyr537Ser, p.Asp538Gly, p.Tyr537Cys, p.Tyr537Asn; experiment: ERE-luciferase reporter assay, ESR1 LBD mutants; assay type: cell-based, human; details: for inhibition of the 5 LBD mutations of ESR1 (reporter activity): ERE-luciferase, increasing doses with 5 nM β-estradiol for 24 hrs (FIG. 4)
Method: (§1) cDNA for the wild type ESR1 was PCR amplified from a breast cell line MCF7 with the introduction of an N-terminal FLAG tag. cDNA encoding the relevant mutations of ESR1 were generated by site-directed mutagenesis (QuikChange, Agilent) and full-length constructs were fully sequenced. All the ESR1 variants were placed in the Lentivial vector pCDH (System Biosciences) for eukaryotic expression.
(§2) For cell transfection experiments, HEK-293T cells were plated at a density of 1−2×10^5 per well (24-well plates) in phenol red-free Dulbecco's modified Eagle's medium (DMEM) containing 10% fetal bovine serum (FBS) and antibiotics. Once cells attached, replaced medium with DMEM containing 10% charcoal-dextran treated FBS (HyClone) and cultured overnight. The next day, cells were transiently co-transfected with ESR1-expression plasmid at 50 ng/well and luciferase reporter constructs at 25 ng per well (SABiosciences) using the FuGene 6 reagent (Promega). The ER-responsive luciferase plasmid encoding the firefly luciferase reporter gene is driven by a minimal CMV promoter and tandem repeats of the estrogen transcriptional response element (ERE). A second plasmid constitutively expressing Renilla luciferase is served as an internal control for normalizing transfection efficiencies (Cignal ERE Reporter, SABiosciences). After transfection for 18 hrs, cells were serum-starved for a few hours before treatment with 13-estradiol or anti-estrogen drugs. Cells were harvested 18 hr post-treatment, and luciferase activity was measured using the Dual-Luciferase Reporter Assay System (Promega). IC50 values were computed using the GraphPad Prizm application to fit a four parameter doseresponse curve.
It was next assessed whether tumor types other than ER positive metastatic hormone-resistant breast cancer also acquire ligand binding mutations in ESR1. The Cancer Genome Atlas Project (TCGA), which has generated whole exome data on 27 tumor types across at least 4000 individual samples was utilized. […] Steroid hormone deprived cells were then exposed to β-estradiol for 24 hours and ER reporter levels assessed.

wild type ESR1 = biological target: T1, wild type ESR1 (Homo sapiens, UniProt P03372); experiment: ERE-luciferase reporter assay, wild type ESR1; assay type: cell-based; details: HEK-293T cells co-transfected with ESR1 plasmid 50 ng and ERE-luciferase; in presence of β-estradiol (FIGS. 4, 8, 9, 10)
T1 construct: expressed in transfected cells; host or cells: HEK-293T
T1 sequence (P03372 1-595): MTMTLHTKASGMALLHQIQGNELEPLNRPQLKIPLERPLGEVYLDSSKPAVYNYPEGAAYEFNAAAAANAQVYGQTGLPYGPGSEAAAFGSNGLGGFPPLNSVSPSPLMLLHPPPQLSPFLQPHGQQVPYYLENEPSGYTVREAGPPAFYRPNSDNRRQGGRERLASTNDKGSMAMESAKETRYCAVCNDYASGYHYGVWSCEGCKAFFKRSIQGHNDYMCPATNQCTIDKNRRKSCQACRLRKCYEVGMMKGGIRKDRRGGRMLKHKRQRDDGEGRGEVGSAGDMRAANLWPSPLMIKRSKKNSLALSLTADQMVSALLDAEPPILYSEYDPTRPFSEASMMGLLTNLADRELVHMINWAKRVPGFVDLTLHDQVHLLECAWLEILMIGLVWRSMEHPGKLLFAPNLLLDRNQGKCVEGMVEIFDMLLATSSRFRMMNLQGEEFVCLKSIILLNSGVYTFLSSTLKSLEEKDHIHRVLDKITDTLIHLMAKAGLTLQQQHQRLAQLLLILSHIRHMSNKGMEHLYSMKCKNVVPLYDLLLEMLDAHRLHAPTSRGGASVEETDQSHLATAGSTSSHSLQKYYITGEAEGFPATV
Source text: as §1
as §2, with “Once” for “For cell transfection experiments, HEK-293T cells were plated at a density of 1−2×10^5 per well (24-well plates) in phenol red-free Dulbecco's modified Eagle's medium (DMEM) containing 10% fetal bovine serum (FBS) and antibiotics. Once”, “IC50 values were computed using the GraphPad Prizm application to fit a four parameter doseresponse curve.” left out

| Compound | maximal inhibition for all the mutants tested ([1]; ERE-luciferase dose response in competition with 1 nM estradiol (FIGS. 8 and 9)) | inhibition of the 5 LBD mutations of ESR1 (reporter activity) [1] | inhibition of wild-type ER reporter (transactivation) activity (wild type ESR1) |
| --- | --- | --- | --- |
| C[C@]12CC[C@@H]3c4ccc(O)cc4C[C@@H](CCCCCCCCC[S+]([O-])CCCC(F)(F)C(F)(F)F)[C@H]3[C@@H]1CC[C@@H]2O (stereo partly shown) [fulvestrant, Fulvestrant] | greater maximal inhibition than 4-hydroxytamoxifen | in a dose-dependent fashion; also recorded: continue to be responsive |  |
| CC/C(=C(\c1ccccc1)c1ccc(OCCN(C)C)cc1)c1ccccc1 [tamoxifen] |  | in a dose-dependent fashion; also recorded: continue to be responsive |  |
| (Z)-4-Hydroxytamoxifen |  |  | inhibited in a dose-dependent fashion |
